# Source: PubChem BioAssay (NCI)
#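 At the GI50, growth is halved. TGI is the concentration that stops growth completely.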
# Experiments:
# Experiment in all cases: inhibition of tumour cell growth, NCI panel, 384-well format
# 786-0 renal = test system: 786-0 renal
# A498 renal = test system: A498 renal
# A549 NSCLC = test system: A549 NSCLC
# ACHN renal = test system: ACHN renal
# BT-549 breast = test system: BT-549 breast
# CAKI-1 renal = test system: CAKI-1 renal
# CCRF-CEM leukemia = test system: CCRF-CEM leukemia
# COLO 205 colon = test system: COLO 205 colon
# DU-145 prostate = test system: DU-145 prostate
# EKVX NSCLC = test system: EKVX NSCLC
# HCC-2998 colon = test system: HCC-2998 colon
# HCT-116 colon = test system: HCT-116 colon
# HCT-15 colon = test system: HCT-15 colon
# HL-60(TB) leukemia = test system: HL-60(TB) leukemia
# HOP-62 NSCLC = test system: HOP-62 NSCLC
# HS 578T breast = test system: HS 578T breast
# HT29 colon = test system: HT29 colon
# IGROV1 ovarian = test system: IGROV1 ovarian
# K-562 leukemia = test system: K-562 leukemia
# KM12 colon = test system: KM12 colon
# LOX IMVI melanoma = test system: LOX IMVI melanoma
# M14 melanoma = test system: M14 melanoma
# MALME-3M melanoma = test system: MALME-3M melanoma
# MCF7 breast = test system: MCF7 breast
# MDA-MB-231 breast = test system: MDA-MB-231 breast
# MDA-MB-435 melanoma = test system: MDA-MB-435 melanoma
# MDA-MB-468 breast = test system: MDA-MB-468 breast
# MOLT-4 leukemia = test system: MOLT-4 leukemia
# NCI-H226 lung = test system: NCI-H226 lung
# NCI-H23 lung = test system: NCI-H23 lung
# NCI-H322M lung = test system: NCI-H322M lung
# NCI-H460 NSCLC = test system: NCI-H460 NSCLC
# NCI-H522 lung = test system: NCI-H522 lung
# NCI/ADR-RES ovarian = test system: NCI/ADR-RES ovarian
# OVCAR-3 ovarian = test system: OVCAR-3 ovarian
# OVCAR-4 ovarian = test system: OVCAR-4 ovarian
# OVCAR-5 ovarian = test system: OVCAR-5 ovarian
# OVCAR-8 ovarian = test system: OVCAR-8 ovarian
# PC-3 prostate = test system: PC-3 prostate
# RPMI-8226 leukemia = test system: RPMI-8226 leukemia
# RXF 393 renal = test system: RXF 393 renal
# SF-268 CNS = test system: SF-268 CNS
# SF-295 CNS = test system: SF-295 CNS
# SF-539 CNS = test system: SF-539 CNS
# SK-MEL-2 melanoma = test system: SK-MEL-2 melanoma
# SK-MEL-28 melanoma = test system: SK-MEL-28 melanoma
# SK-MEL-5 melanoma = test system: SK-MEL-5 melanoma
# SK-OV-3 ovarian = test system: SK-OV-3 ovarian
# SN12C renal = test system: SN12C renal
# SNB-19 CNS = test system: SNB-19 CNS
# SNB-75 CNS = test system: SNB-75 CNS
# SR leukemia = test system: SR leukemia
# SW-620 colon = test system: SW-620 colon
# T-47D breast = test system: T-47D breast
# TK-10 renal = test system: TK-10 renal
# U251 glioblastoma = test system: U251 glioblastoma
# UACC-257 melanoma = test system: UACC-257 melanoma
# UACC-62 melanoma = test system: UACC-62 melanoma
compound,measurement,setting,value
Cc1[nH]ncc1-c1cc2nc(C3CC4CCN3CC4)[nH]c(=O)c2s1 (stereo not given),GI50,786-0 renal,2.75 µM
same,TGI,786-0 renal,55.1 µM
same,GI50,A498 renal,0.0828 µM
same,TGI,A498 renal,70.7 µM
same,GI50,A549 NSCLC,2.86 µM
same,TGI,A549 NSCLC,> 100 µM
same,GI50,ACHN renal,1.96 µM
same,TGI,ACHN renal,> 100 µM
same,GI50,BT-549 breast,1.85 µM
same,TGI,BT-549 breast,6.54 µM
same,GI50,CAKI-1 renal,1.56 µM
same,TGI,CAKI-1 renal,> 100 µM
same,GI50,CCRF-CEM leukemia,0.138 µM
same,TGI,CCRF-CEM leukemia,0.905 µM
same,GI50,COLO 205 colon,0.0396 µM
same,TGI,COLO 205 colon,0.198 µM
same,GI50,DU-145 prostate,0.876 µM
same,TGI,DU-145 prostate,> 100 µM
same,GI50,EKVX NSCLC,5.93 µM
same,TGI,EKVX NSCLC,42.9 µM
same,GI50,HCC-2998 colon,3.48 µM
same,TGI,HCC-2998 colon,24.2 µM
same,GI50,HCT-116 colon,2.16 µM
same,TGI,HCT-116 colon,> 100 µM
same,GI50,HCT-15 colon,2.74 µM
same,TGI,HCT-15 colon,> 100 µM
same,GI50,HL-60(TB) leukemia,0.562 µM
same,TGI,HL-60(TB) leukemia,1.8 µM
same,GI50,HOP-62 NSCLC,2.31 µM
same,TGI,HOP-62 NSCLC,16.1 µM
same,GI50,HS 578T breast,1.48 µM
same,TGI,HS 578T breast,3.32 µM
same,GI50,HT29 colon,14.4 µM
same,TGI,HT29 colon,> 100 µM
same,GI50,IGROV1 ovarian,3.76 µM
same,TGI,IGROV1 ovarian,> 51.1 µM
same,GI50,K-562 leukemia,5.24 µM
same,TGI,K-562 leukemia,> 100 µM
same,GI50,KM12 colon,3.22 µM
same,TGI,KM12 colon,25.7 µM
same,GI50,LOX IMVI melanoma,0.888 µM
same,TGI,LOX IMVI melanoma,14.6 µM
same,GI50,M14 melanoma,5.7 µM
same,TGI,M14 melanoma,19.4 µM
same,GI50,MALME-3M melanoma,11.1 µM
same,TGI,MALME-3M melanoma,29.7 µM
same,GI50,MCF7 breast,3.55 µM
same,TGI,MCF7 breast,> 100 µM
same,GI50,MDA-MB-231 breast,7.14 µM
same,TGI,MDA-MB-231 breast,> 100 µM
same,GI50,MDA-MB-435 melanoma,9.26 µM
same,TGI,MDA-MB-435 melanoma,28 µM
same,GI50,MDA-MB-468 breast,1.17 µM
same,TGI,MDA-MB-468 breast,20.9 µM
same,GI50,MOLT-4 leukemia,1.14 µM
same,TGI,MOLT-4 leukemia,11.3 µM
same,GI50,NCI-H226 lung,2.53 µM
same,TGI,NCI-H226 lung,15.9 µM
same,GI50,NCI-H23 lung,1.36 µM
same,TGI,NCI-H23 lung,6.79 µM
same,GI50,NCI-H322M lung,6.94 µM
same,TGI,NCI-H322M lung,34.3 µM
same,GI50,NCI-H460 NSCLC,1.19 µM
same,TGI,NCI-H460 NSCLC,5.55 µM
same,GI50,NCI-H522 lung,0.381 µM
same,TGI,NCI-H522 lung,7.5 µM
same,GI50,NCI/ADR-RES ovarian,16.2 µM
same,TGI,NCI/ADR-RES ovarian,65.8 µM
same,GI50,OVCAR-3 ovarian,2.93 µM
same,TGI,OVCAR-3 ovarian,18.3 µM
same,GI50,OVCAR-4 ovarian,21.4 µM
same,TGI,OVCAR-4 ovarian,74.9 µM
same,GI50,OVCAR-5 ovarian,4.24 µM
same,TGI,OVCAR-5 ovarian,> 100 µM
same,GI50,OVCAR-8 ovarian,8.87 µM
same,TGI,OVCAR-8 ovarian,> 100 µM
same,GI50,PC-3 prostate,8.96 µM
same,TGI,PC-3 prostate,> 100 µM
same,GI50,RPMI-8226 leukemia,10.3 µM
same,TGI,RPMI-8226 leukemia,22 µM
same,GI50,RXF 393 renal,2.27 µM
same,TGI,RXF 393 renal,7.19 µM
same,GI50,SF-268 CNS,1.42 µM
same,TGI,SF-268 CNS,4.23 µM
same,GI50,SF-295 CNS,1.19 µM
same,TGI,SF-295 CNS,49.4 µM
same,GI50,SF-539 CNS,1.31 µM
same,TGI,SF-539 CNS,7.72 µM
same,GI50,SK-MEL-2 melanoma,6.55 µM
same,TGI,SK-MEL-2 melanoma,18.4 µM
same,GI50,SK-MEL-28 melanoma,6.67 µM
same,TGI,SK-MEL-28 melanoma,23.2 µM
same,GI50,SK-MEL-5 melanoma,2.18 µM
same,TGI,SK-MEL-5 melanoma,7.13 µM
same,GI50,SK-OV-3 ovarian,17.8 µM
same,TGI,SK-OV-3 ovarian,> 100 µM
same,GI50,SN12C renal,1.78 µM
same,TGI,SN12C renal,17.9 µM
same,GI50,SNB-19 CNS,9.66 µM
same,TGI,SNB-19 CNS,> 100 µM
same,GI50,SNB-75 CNS,2.06 µM
same,TGI,SNB-75 CNS,7.46 µM
same,GI50,SR leukemia,0.178 µM
same,TGI,SR leukemia,0.366 µM
same,GI50,SW-620 colon,0.333 µM
same,GI50,T-47D breast,24.9 µM
same,TGI,T-47D breast,> 100 µM
same,GI50,TK-10 renal,9.31 µM
same,TGI,TK-10 renal,> 79.3 µM
same,GI50,U251 glioblastoma,1.38 µM
same,TGI,U251 glioblastoma,74.2 µM
same,GI50,UACC-257 melanoma,15.2 µM
same,TGI,UACC-257 melanoma,43.8 µM
same,GI50,UACC-62 melanoma,2.88 µM
same,TGI,UACC-62 melanoma,15.5 µM
